Source: patent US20100331297A1, “MODULATION OF PROTEIN TRAFFICKING” (FOLDRX PHARMACEUTICALS, INC., priority 2007, published 2010)

Experiments:
ΔF508 CFTR [1] = biological target: T1, ΔF508 CFTR (Homo sapiens, UniProt P13569, DEL508-508); assay: Potentiator activity, YFP halide (iodide) quenching assay in FRT cells expressing ΔF508 CFTR, 27° C. pre-incubation; type: cell-based; parameters: expressed in transfected cells; host or cells: Fischer rat thyroid (FRT) cells; conditions: FRT cells ΔF508 CFTR/YFP, 24 hours at 27° C., compound with forskolin 30 min
Method: Fisher rat thyroid (FRT) cells stably expressing ΔF508 CFTR and a halide-sensitive variant of yellow fluorescent protein (YFP) were seeded into microtiter plates and allowed to grow for 24 hours at 37° C. and 5% CO2, as described above. The medium was replaced with fresh medium and the cells were incubated for a further 24 hours at 27° C. and 5% CO2 to increase the level of mutant CFTR at the cell surface.
Compounds in DMSO solution were pre-diluted into phosphate-buffered saline solution (PBS) containing forskolin. Activity of CFTR was assayed by removing the medium, washing the cell monolayer with PBS, and then applying the compounds diluted in PBS containing forskolin. After 30 min of incubation at 37° C., the plates were placed in a fluorescence plate reader equipped with a reagent injector. After measuring an initial fluorescence value, iodide-containing buffer was injected and the decrease in fluorescence was followed at excitation and emission wavelengths of 485 and 530 nm, respectively.
Potentiator activity was calculated as follows. Normalized endpoint fluorescence was calculated by dividing the endpoint fluorescence after iodide injection by the initial fluorescence reading and multiplication by 100. Potentiator EC50 values were calculated by the same method as corrector EC50 values.

ΔF508 CFTR [2] = biological target: T1, ΔF508 CFTR; assay: Corrector activity, YFP halide (iodide) quenching assay in FRT cells expressing ΔF508 CFTR; type: cell-based; parameters: expressed in transfected cells; host or cells: Fischer rat thyroid (FRT) cells; conditions: FRT cells ΔF508 CFTR/YFP, 24 hours with compound at 37° C., forskolin and genistein; read-out: Corrector EC50
Method: Fisher rat thyroid (FRT) cells stably expressing ΔF508 CFTR and a halide-sensitive variant of yellow fluorescent protein (YFP) were seeded into microtiter plates and allowed to grow for 24 hours at 37° C. and 5% CO2. See Pedemonte et al., J. Clin. Invest. […] Compounds in dimethylsulfoxide (DMSO) solution were pre-diluted into cell culture medium, the medium was removed from cells, and then fresh medium containing the compounds was applied. The cells were incubated for a further 24 hours at 37° C. and 5% CO2.
Activity of CFTR was assayed by removing the medium, washing the cell monolayer with phosphate-buffered saline solution (PBS), and then applying PBS containing forskolin and genistein. After 30 min incubation at 37° C., the plates were placed in a fluorescence plate reader equipped with a reagent injector.
Corrector activity was calculated as follows. Normalized endpoint fluorescence was calculated by dividing the endpoint fluorescence after iodide injection by the initial fluorescence reading and multiplication by 100. Corrector EC50 values were calculated from the activity vs. concentration data using a 4-parameter log fit. The bottom of the curve was constrained to zero activity (DMSO control) while the slope, EC50, and top of the curve were fitted to the data. The EC50 was determined as the concentration that corresponds to the inflection point of the fitted curve.

T1 sequence (P13569 with tags, fused parts or gaps DEL508-508): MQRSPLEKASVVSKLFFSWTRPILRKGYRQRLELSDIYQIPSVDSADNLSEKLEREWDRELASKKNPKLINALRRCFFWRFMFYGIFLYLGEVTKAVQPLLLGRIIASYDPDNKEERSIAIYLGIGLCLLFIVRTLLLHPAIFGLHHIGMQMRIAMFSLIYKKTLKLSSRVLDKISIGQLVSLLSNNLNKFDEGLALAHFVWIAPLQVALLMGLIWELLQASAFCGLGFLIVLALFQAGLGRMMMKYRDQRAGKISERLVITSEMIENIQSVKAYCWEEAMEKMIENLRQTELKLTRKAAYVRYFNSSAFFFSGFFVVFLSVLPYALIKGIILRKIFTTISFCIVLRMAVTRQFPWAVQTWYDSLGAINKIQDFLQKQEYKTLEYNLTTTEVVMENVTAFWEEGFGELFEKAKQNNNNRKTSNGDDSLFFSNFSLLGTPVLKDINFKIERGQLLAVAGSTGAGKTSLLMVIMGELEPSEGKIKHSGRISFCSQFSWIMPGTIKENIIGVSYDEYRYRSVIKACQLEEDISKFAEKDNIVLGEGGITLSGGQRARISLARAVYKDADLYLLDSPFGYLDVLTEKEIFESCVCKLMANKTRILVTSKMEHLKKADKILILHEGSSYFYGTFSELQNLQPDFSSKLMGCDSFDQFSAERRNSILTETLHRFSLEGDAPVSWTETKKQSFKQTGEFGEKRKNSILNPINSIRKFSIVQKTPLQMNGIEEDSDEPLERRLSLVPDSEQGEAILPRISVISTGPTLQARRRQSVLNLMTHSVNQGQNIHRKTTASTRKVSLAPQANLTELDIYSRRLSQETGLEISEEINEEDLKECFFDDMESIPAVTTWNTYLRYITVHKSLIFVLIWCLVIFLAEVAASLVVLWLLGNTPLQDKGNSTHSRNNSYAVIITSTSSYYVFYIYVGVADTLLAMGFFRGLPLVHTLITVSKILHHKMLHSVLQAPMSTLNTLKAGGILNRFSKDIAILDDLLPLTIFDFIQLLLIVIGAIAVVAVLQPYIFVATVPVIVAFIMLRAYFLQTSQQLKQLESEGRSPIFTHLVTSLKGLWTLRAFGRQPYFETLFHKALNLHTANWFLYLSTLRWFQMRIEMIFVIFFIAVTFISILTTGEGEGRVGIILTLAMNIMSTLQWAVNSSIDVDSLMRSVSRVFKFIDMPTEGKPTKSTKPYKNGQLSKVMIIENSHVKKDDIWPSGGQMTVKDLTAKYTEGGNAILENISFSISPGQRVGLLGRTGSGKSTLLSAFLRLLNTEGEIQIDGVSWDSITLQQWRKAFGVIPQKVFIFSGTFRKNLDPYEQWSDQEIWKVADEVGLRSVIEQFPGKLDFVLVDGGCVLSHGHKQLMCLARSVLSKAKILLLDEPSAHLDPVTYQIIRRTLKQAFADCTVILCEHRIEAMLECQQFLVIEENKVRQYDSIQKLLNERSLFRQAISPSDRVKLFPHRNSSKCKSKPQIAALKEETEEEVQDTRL

EC50 (ΔF508 CFTR [1]) [µM] | EC50 (ΔF508 CFTR [2]) [µM] | Structure (SMILES)
> 15 | > 15 | CC(=O)N1CC(n2nc(-c3ccc(Cl)cc3)c3c(N)ncnc32)C1 [Compound No. 295, 1-{3-[4-Amino-3-(4-chloro-phenyl)-pyrazolo[3,4-d]pyrimidin-1-yl]-azetidin-1-yl}-ethanone]
> 15 | > 15 | CN1CC(n2nc(-c3ccc(Cl)cc3)c3c(N)ncnc32)C1 [Compound No. 296, 3-(4-Chloro-phenyl)-1-(1-methyl-azetidin-3-yl)-1H-pyrazolo[3,4-d]pyrimidin-4-ylamine]
2 to 5 | > 15 | CC(C)(C)OC(=O)N1CC(n2nc(Cc3cccc4ccccc34)c3c(N)ncnc32)C1 [Compound No. 297, 3-(4-Amino-3-naphthalen-1-ylmethyl-pyrazolo[3,4-d]pyrimidin-1-yl)-azetidine-1-carboxylic acid tert-butyl ester]
< 2 | 5 to 10 | CC(C)(C)n1nc(-c2ccc(Cl)cc2)c2c(NC(=O)O[C@H]3CCOC3)ncnc21 [Compound No. 301, [1-tert-Butyl-3-(4-chloro-phenyl)-1H-pyrazolo[3,4-d]pyrimidin-4-yl]-carbamic acid tetrahydro-furan-3-yl ester]
> 15 | 5 to 10 | CC(C)N1CC(n2nc(-c3ccc(Cl)cc3)c3c(N)ncnc32)C1 [Compound No. 304, 3-(4-Chloro-phenyl)-1-(1-isopropyl-azetidin-3-yl)-1H-pyrazolo[3,4-d]pyrimidin-4-ylamine]
> 15 | > 15 | CCn1cc(-c2ccc(Cl)cc2)c2c(NS(C)(=O)=O)ncnc21 [Compound No. 305, N-[5-(4-Chloro-phenyl)-7-ethyl-7H-pyrrolo[2,3-d]pyrimidin-4-yl]-methanesulfonamide]
2 to 5 | > 15 | CC(C)(C)OC(=O)N1CC(n2nc(Sc3ccccc3)c3c(N)ncnc32)C1 [Compound No. 320, 3-(4-Amino-3-phenylsulfanyl-pyrazolo[3,4-d]pyrimidin-1-yl)-azetidine-1-carboxylic acid tert-butyl ester]
< 2 | > 15 | CC(C)(C)n1nc(Oc2cccc(Cl)c2)c2c(NC(=O)c3ccccc3)ncnc21 [Compound No. 332, N-[1-tert-Butyl-3-(3-chloro-phenoxy)-1H-pyrazolo[3,4-d]pyrimidin-4-yl]-benzamide]
< 2 | 2 to 5 | CCn1cc(Sc2ccccc2)c2c(N)ncnc21 [Compound No. 333, 7-Ethyl-5-phenylsulfanyl-7H-pyrrolo[2,3-d]pyrimidin-4-ylamine]
5 to 10 | > 15 | CC(C)(C)OC(=O)N1CC(n2nc(Oc3ccccc3)c3c(N)ncnc32)C1 [Compound No. 341, 3-(4-Amino-3-phenoxy-pyrazolo[3,4-d]pyrimidin-1-yl)-azetidine-1-carboxylic acid tert-butyl ester]
2 to 5 | > 15 | CCOC(=O)N1CC(n2nc(Sc3cccc(Cl)c3)c3c(N)ncnc32)C1 [Compound No. 345, 3-[4-Amino-3-(3-chloro-phenylsulfanyl)-pyrazolo[3,4-d]pyrimidin-1-yl]-azetidine-1-carboxylic acid ethyl ester]
> 15 | > 15 | CCNC(=O)N1CC(n2nc(Sc3cccc(Cl)c3)c3c(N)ncnc32)C1 [Compound No. 346, 3-[4-Amino-3-(3-chloro-phenylsulfanyl)-pyrazolo[3,4-d]pyrimidin-1-yl]-azetidine-1-carboxylic acid ethylamide]
> 15 | < 2 | CN1CC[C@@H](n2nc(-c3ccc(Cl)cc3)c3c(N)ncnc32)C1 [Compound No. 356, 3-(4-Chloro-phenyl)-1-(1-methyl-pyrrolidin-3-yl)-1H-pyrazolo[3,4-d]pyrimidin-4-ylamine]
> 15 | 5 to 10 | Cc1ccc(-c2nn(C(C)(C)C)c3ncnc(NC(=O)c4ccc(F)cc4)c23)cc1 [compound 94]

Structure (SMILES) | EC50 (ΔF508 CFTR [1]) [µM] | EC50 (ΔF508 CFTR [2]) [µM]
CCn1nc(-c2ccc(Cl)cc2)c2c(N)ncnc21 [compound 67] | 2 to 5 | > 15
